Results on 35 compounds are retold here after US20050197350A1, “Novel quinoline, tetrahydroquinazoline, and pyrimidine derivatives and methods of treatment related to the use thereof” (TAISHO PHARMACEUTICAL CO., LTD., priority 2003, published 2005).

The structures appear in SMILES notation.

In the first experiment the test system is MCH receptors. Put plainly: MCH receptor activity class (method not given).
Settings: not given
In the case of `Cc1cc(N(C)C)nc(N[C@H]2CC[C@@H](C(=O)NCc3cc(Cl)ccc3Cl)CC2)n1` [Example 2573, cis-N-(2,5-dichlorobenzyl)-4-{[4-(dimethylamino)-6-methylpyrimidin-2-yl]amino}cyclohexanecarboxamide], the class was 1.
On the same count and under the same terms, in the case of `Cc1ccc(CNC(=O)[C@H]2CC[C@@H](Nc3nc(C)cc(N(C)C)n3)CC2)cc1` [Example 2574, cis-4-{[4-(dimethylamino)-6-methylpyrimidin-2-yl]amino}-N-(4-methylbenzyl)cyclohexanecarboxamide] it was 1.

The experiment is the same for the next values; noted with them: MCH receptor activity class 1-3 (percent of control at 10^-7 M or IC50).
Turning to `CN(C)c1cc(N[C@H]2CC[C@@H](CNC(=O)Nc3c(F)cc(Br)cc3F)CC2)nc2ccccc12` [compound 2386], the class is reported as 3 (Class 3 The value of percent of control at 10^−7 M was more than 60% or the value of IC50 was more than 200 nM.).
Still for that read-out and setting: in the case of `CCc1cccc(CC)c1NC(=O)NC[C@H]1CC[C@@H](Nc2nc3c(c(N(C)C)n2)CCCC3)CC1` [compound 2464] it was 1 (Class 1: The value of percent of control at 10^−7 M was less than 40% or the value of IC50 was less than 50 nM.).

The experiment is the same for the next values; noted with them: MCH receptor; class by percent of control at 10^-7 M or IC50.
Regarding `CN(C)c1nc(N[C@H]2CC[C@@H](NC(=S)Nc3cc([N+](=O)[O-])ccc3Cl)CC2)nc2c1CCCC2` [compound 2035], the class is 3 (Class 3 The value of percent of control at 10^−7 M was more than 60% or the value of IC50 was more than 200 nM.).
Still for that read-out and setting: in the case of `CN(C)c1cc(N[C@H]2CC[C@@H](NC(=O)Cc3ccc(Cl)cc3)CC2)nc2ccccc12` [compound 28] it was 3 (Class 3 The value of percent of control at 10^−7 M was more than 60% or the value of IC50 was more than 200 nM.); in that of `CSc1cccc(NC(=S)N[C@H]2CC[C@@H](Nc3nc4c(c(N(C)C)n3)CCCC4)CC2)c1` [compound 2004], 3 (Class 3 The value of percent of control at 10^−7 M was more than 60% or the value of IC50 was more than 200 nM.).
Consider `Cc1ccccc1NC(=S)N[C@H]1CC[C@@H](Nc2nc3c(c(N(C)C)n2)CCCC3)CC1` [compound 1960], for which the class is recorded as 3 (Class 3 The value of percent of control at 10^−7 M was more than 60% or the value of IC50 was more than 200 nM.).
As to `CN(C)c1nc(N[C@H]2CC[C@@H](NC(=O)Nc3cc(Cl)nc(Cl)c3)CC2)nc2c1CCCC2` [compound 1923], the class is on record as 3 (Class 3 The value of percent of control at 10^−7 M was more than 60% or the value of IC50 was more than 200 nM.).
Still for that read-out and setting: the result for `Cc1cccc(CNC(=S)N[C@H]2CC[C@@H](Nc3nc4c(c(N(C)C)n3)CCCC4)CC2)c1` [compound 2045] reads 3 (Class 3 The value of percent of control at 10^−7 M was more than 60% or the value of IC50 was more than 200 nM.).

Still in this experiment, the particulars now being: activity class per percent of control at 10^-7 M or IC50.
Consider `CSc1sc(C(=O)N[C@H]2CC[C@@H](Nc3nc4c(c(N(C)C)n3)CCCC4)CC2)c(I)c1S(=O)(=O)C(C)C` [compound 1042], for which the class is recorded as 3 (Class 3 The value of percent of control at 10^−7 M was more than 60% or the value of IC50 was more than 200 nM.).
Regarding `CN(C)c1nc(N[C@H]2CC[C@@H](CNC(=O)Cc3ccccc3I)CC2)nc2c1CCCC2` [compound 1069], the class is reported as 3 (Class 3 The value of percent of control at 10^−7 M was more than 60% or the value of IC50 was more than 200 nM.).
As to `CN(C)c1nc(N[C@H]2CC[C@@H](NC(=O)c3cccc(-n4c(-c5ccc(Br)cc5)cc5c4CC(C)(C)CC5=O)c3)CC2)nc2c1CCCC2` [compound 995], the class was 3 (Class 3 The value of percent of control at 10^−7 M was more than 60% or the value of IC50 was more than 200 nM.).

The experiment is the same for the next values; noted with them: class 1-3 by percent of control at 10^-7 M or IC50.
Regarding `CN(C)c1ccnc(N[C@H]2CC[C@@H](CNC(=O)c3ccc(F)c(Cl)c3)CC2)n1` [compound 418], the class was 3 (Class 3 The value of percent of control at 10^−7 M was more than 60% or the value of IC50 was more than 200 nM.).

The same experiment, now with this note: class by percent of control at 10^-7 M or IC50.
For `CN(C)c1cc(N[C@H]2CC[C@@H](NC(=O)Nc3ccccc3[N+](=O)[O-])CC2)nc2ccccc12` [compound 2147], the class is reported as 3 (Class 3 The value of percent of control at 10^−7 M was more than 60% or the value of IC50 was more than 200 nM.).
For `COc1cc(C(=O)N[C@H]2CC[C@@H](Nc3cc(N(C)C)c4ccccc4n3)CC2)cc(OC)c1O` [compound 784], the class was 3 (Class 3 The value of percent of control at 10^−7 M was more than 60% or the value of IC50 was more than 200 nM.).
For `CSc1ccc(NC(=O)N[C@H]2CC[C@@H](Nc3nccc(N(C)C)n3)CC2)cc1` [compound 2185], the class is 3 (Class 3 The value of percent of control at 10^−7 M was more than 60% or the value of IC50 was more than 200 nM.).
For the compound `CN(C)c1cc(N[C@H]2CC[C@@H](NCCN(CCC#N)c3ccccc3)CC2)nc2ccccc12` [compound 1455], the class is reported as 2 (Class 2: The value of percent of control at 10^−7 M was from 40% to 60% or the value of IC′50 was from 50 nM to 200 nM.).
In the case of `C[C@@H](CNC[C@H]1CC[C@@H](Nc2cc(N(C)C)c3ccccc3n2)CC1)N(Cc1ccccc1)Cc1ccccc1` [compound 1477], the class was 3 (Class 3 The value of percent of control at 10^−7 M was more than 60% or the value of IC50 was more than 200 nM.).
`COc1ccc(NC(=O)N[C@H]2CC[C@@H](Nc3nccc(N(C)C)n3)CC2)cc1OC1CCCC1` [compound 2253]: the class is 2 (Class 2: The value of percent of control at 10^−7 M was from 40% to 60% or the value of IC′50 was from 50 nM to 200 nM.).
Same read-out and setting: in the case of `CCSc1ncccc1C(=O)N[C@H]1CC[C@@H](Nc2nccc(N(C)C)n2)CC1` [compound 254] it was 3 (Class 3 The value of percent of control at 10^−7 M was more than 60% or the value of IC50 was more than 200 nM.).
On the same count and under the same terms, the result for `CN(C)c1nc(N[C@H]2CC[C@@H](NC(=S)Nc3ccc(I)cc3)CC2)nc2c1CCCC2` [compound 1752] reads 2 (Class 2: The value of percent of control at 10^−7 M was from 40% to 60% or the value of IC′50 was from 50 nM to 200 nM.); that for `Cc1cc(C)c(NC(=O)N[C@H]2CC[C@@H](Nc3nccc(N(C)C)n3)CC2)c(C)c1` [compound 2187, N-(cis-4-{[4-(dimethylamino)pyrimidin-2-yl]amino}cyclohexyl)-N′-mesitylurea], 2 (Class 2: The value of percent of control at 10^−7 M was from 40% to 60% or the value of IC′50 was from 50 nM to 200 nM.); that for `Cc1cccc(C(C)C)c1NC(=S)N[C@H]1CC[C@@H](Nc2nc3c(c(N(C)C)n2)CCCC3)CC1` [compound 1783], 3 (Class 3 The value of percent of control at 10^−7 M was more than 60% or the value of IC50 was more than 200 nM.).
In the case of `COc1cc(CCN[C@H]2CC[C@@H](Nc3nc4c(c(N(C)C)n3)CCCC4)CC2)cc(OC)c1` [compound 1493], the class was 2 (Class 2: The value of percent of control at 10^−7 M was from 40% to 60% or the value of IC′50 was from 50 nM to 200 nM.).
Still for that read-out and setting: in the case of `CC(C)NC(=O)N[C@H]1CC[C@@H](Nc2nc3c(c(N(C)C)n2)CCCC3)CC1` [compound 1830] it was 3 (Class 3 The value of percent of control at 10^−7 M was more than 60% or the value of IC50 was more than 200 nM.); in that of `CN(C)c1nc(N[C@H]2CC[C@@H](CNC(=O)c3cccc(Cl)c3Cl)CC2)nc2c1CCCC2` [compound 659], 3 (Class 3 The value of percent of control at 10^−7 M was more than 60% or the value of IC50 was more than 200 nM.).
As to `C=C(C)c1cccc(C(C)(C)NC(=O)N[C@H]2CC[C@@H](Nc3cc(N(C)C)c4ccccc4n3)CC2)c1` [compound 2128], the class is on record as 3 (Class 3 The value of percent of control at 10^−7 M was more than 60% or the value of IC50 was more than 200 nM.).
On the same count and under the same terms, in the case of `CCOC(=O)[C@H](CC(C)C)NC(=O)N[C@H]1CC[C@@H](Nc2nccc(N(C)C)n2)CC1` (relative stereo) [compound 2183] it was 3 (Class 3 The value of percent of control at 10^−7 M was more than 60% or the value of IC50 was more than 200 nM.).

Still in this experiment, the particulars now being: class by percent of control at 10^−7 M or IC50.
Take `COc1cc(OC)cc(C(=O)NC[C@H]2CC[C@@H](Nc3ncc(C)c(N(C)C)n3)CC2)c1` [compound 2694, N-[(cis-4-{[4-(dimethylamino)-5-methylpyrimidin-2-yl]amino}cyclohexyl)methyl]-3,5-dimethoxybenzamide]: the class is given as 1 (Class 1: The value of percent of control at 10^−7 M was less than 40% or the value of IC50 was less than 50 nM.).
As for `Cc1cnc(N[C@H]2CC[C@@H](CNC(=O)c3ccccc3)CC2)nc1N(C)C` [compound 2690, N-[(cis-4-{[4-(dimethylamino)-5-methylpyrimidin-2-yl]amino}cyclohexyl)methyl]benzamide], the class was 3 (Class 3 The value of percent of control at 10^−7 M was more than 60% or the value of IC50 was more than 200 nM.).
In the case of `Cc1nc(N[C@H]2CC[C@@H](NC(=O)c3cccc(O)n3)CC2)nc(N(C)C)c1C` [compound 2863], the class is given as 3 (Class 3 The value of percent of control at 10^−7 M was more than 60% or the value of IC50 was more than 200 nM.).
Still for that read-out and setting: in the case of `COc1ccccc1C(=O)N[C@H]1CC[C@@H](Nc2nc(C)c(C)c(N(C)C)n2)CC1` [compound 2848, N-(cis-4-{[4-(dimethylamino)-5,6-dimethylpyrimidin-2-yl]amino}cyclohexyl)-2-methoxybenzamide] it was 2 (Class 2: The value of percent of control at 10^−7 M was from 40% to 60% or the value of IC′50 was from 50 nM to 200 nM.); in that of `COc1cccc(OCC(=O)N[C@H]2CC[C@@H](Nc3ncc(C)c(N(C)C)n3)CC2)c1` [compound 2877, N-(cis-4-{[4-(dimethylamino)-5-methylpyrimidin-2-yl]amino}cyclohexyl)-2-(3-methoxyphenoxy)acetamide], 1 (Class 1: The value of percent of control at 10^−7 M was less than 40% or the value of IC50 was less than 50 nM.).
Same read-out and setting: the result for `COc1cccc([C@H](C)NC(=O)[C@H]2CC[C@@H](Nc3nc(C)cc(N(C)C)n3)CC2)c1` [compound 2803, cis-4-{[4-(dimethylamino)-6-methylpyrimidin-2-yl]amino}-N-[(1S)-1-(3-methoxyphenyl)ethyl]cyclohexanecarboxamide] reads 2 (Class 2: The value of percent of control at 10^−7 M was from 40% to 60% or the value of IC′50 was from 50 nM to 200 nM.).
